Source: patent publication US20220241261A1, “COMBINATIONS OF INHIBITORS OF IRAK4 WITH INHIBITORS OF BTK” (Bayer Pharma Aktiengesellschaft, priority 2015, published 2022)

Key:
[1] = system: secretion of TNF-α in THP-1 cells; assay: TNF-α secretion in THP-1 cells (LPS-triggered, HTRF); assay type: cell-based; conditions: Homo sapiens, LPS stimulation, 17 h, read-out: IC50 with respect to the secretion of TNF-α in THP-1 cells
[2] = system: ABC-DLBCL cell lines TMD-8 and HBL-1 and OCI-LY10; assay: Cell proliferation measurement (Cell Titer Glo, combination, isobolograms); assay type: cell-based, human; conditions: combination with ibrutinib or RN486 or AVL-292 or CGI-1746; TMD-8, HBL-1, OCI-LY10 cells; 72 h
[3] = system: human TMD-8 ABC-DLBCL tumours; conditions: TMD-8 xenograft, C.B-17 SCID mice, ibrutinib 10 mg/kg
relapsed DLBCL = conditions: phase 2 study; cited from earlier work

IC50 [1] [nM]	SMILES	antitumour (anti-proliferative) action of the combination compared to single treatments [2]	Max. weight loss ([3]; QD p.o., Example 11 40 mg/kg, change versus initial body weight) [%]	effect on the tumour growth of TMD-8 (in words) ([3]; oral daily, Example Compound 11 40 mg/kg)	patients responded to treatment (relapsed DLBCL) [%]
100	Cc1nc(C(=O)Nc2cc3cn(CCC(C)(C)O)nc3cc2C(C)(C)O)ccc1F [Example 19, 5-Fluoro-N-[2-(3-hydroxy-3-methylbutyl)-6-(2-hydroxypropan-2-yl)-2H-indazol-5-yl]-6-methylpyridine-2-carboxamide]	distinct rise in antitumour action was almost always recorded	–	–	–
100	CC(C)(O)CCn1cc2cc(NC(=O)c3cccc(C(F)F)n3)c(C(C)(C)O)cc2n1 [Example 13, 6-(Difluoromethyl)-N-[2-(3-hydroxy-3-methylbutyl)-6-(2-hydroxypropan-2-yl)-2H-indazol-5-yl]pyridine-2-carboxamide]	distinct rise in antitumour action was almost always recorded	–	–	–
–	C=CC(=O)N1CCC[C@@H](n2nc(-c3ccc(Oc4ccccc4)cc3)c3c(N)ncnc32)C1 [Ibrutinib, 1-{(3R)-3-[4-amino-3-(4-phenoxyphenyl)-1H-pyrazolo[3,4-d]pyrimidin-1-yl]piperidin-1-yl}prop-2-en-1-one]	–	−5	moderate inhibitory effect	40
